Measurements published in PubChem BioAssay AID1745844 (Carcinogenic Potency Database (CPDB), 2022).
Activity calls are given as the source filed them. The rule behind the calls is not given here.

Test system: rodent lifetime carcinogenesis bioassay, tumor incidence TD50
Test: chronic cancer bioassays in animals – CPDB, compiled studies (AID 1745844)

CCNc1nc(Cl)nc(NC(C)(C)C#N)n1
8.77 mg/kg/day: TD50 (rat, strain Charles River CD (Sprague-Dawley), females, in feed, site: mammary gland, lesion: benign tumor, dosed 52 weeks, study length 52 weeks)
active: TD50 (rat, strain Charles River CD (Sprague-Dawley), females, in feed, site: mammary gland, lesion: adenocarcinoma, dosed 105 weeks, study length 105 weeks) 6.65 mg/kg/day | TD50 (rat, strain Charles River CD (Sprague-Dawley), females, in feed, site: mammary gland, lesion: malignant tumor, dosed 105 weeks, study length 105 weeks) 6.33 mg/kg/day
22.9 mg/kg/day: TD50 (rat, strain Charles River CD (Sprague-Dawley), females, in feed, site: mammary gland, lesion: several types, types named in the paper, dosed 105 weeks, study length 105 weeks)
inactive: carcinogen call (rat, strain Charles River CD (Sprague-Dawley), males, in feed, site: liver, lesion: hepatocellular adenoma, dosed 104 weeks, study length 104 weeks) negative | carcinogen call (rat, strain Charles River CD (Sprague-Dawley), males, in feed, site: liver, lesion: one or several types, types not named, dosed 52 weeks, study length 52 weeks) negative
280 mg/kg/day: TD50 (rat, strain Charles River CD (Sprague-Dawley), females, in feed, site: liver, lesion: hepatocellular adenoma, dosed 105 weeks, study length 105 weeks)
140 mg/kg/day: TD50 (rat, strain Charles River CD (Sprague-Dawley), females, in feed, site: mammary gland, lesion: carcinosarcoma, dosed 105 weeks, study length 105 weeks)
3.03 mg/kg/day: TD50 (rat, strain Charles River CD (Sprague-Dawley), females, in feed, site: mammary gland, lesion: fibroadenoma, dosed 52 weeks, study length 52 weeks)

CN(C)CCOc1ccc(/C(=C(/CCCl)c2ccccc2)c2ccccc2)cc1
inactive: carcinogen call (rat, strain Charles River CD (Sprague-Dawley), females, by gavage, site: liver, lesion: hepatocellular adenoma, dosed 52 weeks, study length 52 weeks) negative | carcinogen call (rat, strain Charles River CD (Sprague-Dawley), females, by gavage, site: liver, lesion: hepatocellular adenoma, dosed 52 weeks, study length 65 weeks) negative | carcinogen call (rat, strain Charles River CD (Sprague-Dawley), females, by gavage, site: liver, lesion: hepatocellular carcinoma, dosed 52 weeks, study length 52 weeks) negative | carcinogen call (rat, strain Charles River CD (Sprague-Dawley), females, by gavage, site: liver, lesion: hepatocellular carcinoma, dosed 52 weeks, study length 65 weeks) negative | carcinogen call (rat, strain Sprague-Dawley, females, by gavage, site: liver, lesion: one or several types, types not named, dosed 52 weeks, study length 52 weeks) negative | carcinogen call (rat, strain Sprague-Dawley, females, by gavage, site: liver, lesion: one or several types, types not named, dosed 52 weeks, study length 65 weeks) negative | carcinogen call (rat, strain Sprague-Dawley, females, by gavage, site: liver, lesion: several types, types named in the paper, dosed 52 weeks, study length 52 weeks) negative | carcinogen call (rat, strain Sprague-Dawley, females, by gavage, site: liver, lesion: several types, types named in the paper, dosed 52 weeks, study length 65 weeks) negative | TD50 (rat, strain Sprague-Dawley, females, in feed, site: liver, lesion: hepatocellular adenoma, dosed 104 weeks, study length 104 weeks) 344 mg/kg/day | carcinogen call (rat, strain Sprague-Dawley, females, in feed, site: liver, lesion: hepatocellular carcinoma, dosed 104 weeks, study length 104 weeks) negative | carcinogen call (rat, strain Sprague-Dawley, females, in feed, site: mammary gland, lesion: one or several types, types not named, dosed 104 weeks, study length 104 weeks) negative | carcinogen call (rat, strain Sprague-Dawley, females, in feed, site: pituitary gland, lesion: one or several types, types not named, dosed 104 weeks, study length 104 weeks) negative | carcinogen call (rat, strain Sprague-Dawley, males, in feed, site: liver, lesion: hepatocellular adenoma, dosed 104 weeks, study length 104 weeks) negative | TD50 (rat, strain Sprague-Dawley, males, in feed, site: liver, lesion: hepatocellular carcinoma, dosed 104 weeks, study length 104 weeks) 1040 mg/kg/day | carcinogen call (rat, strain Sprague-Dawley, males, in feed, site: mammary gland, lesion: one or several types, types not named, dosed 104 weeks, study length 104 weeks) negative | carcinogen call (rat, strain Sprague-Dawley, males, in feed, site: pituitary gland, lesion: one or several types, types not named, dosed 104 weeks, study length 104 weeks) negative | carcinogen call (rat, strain Sprague-Dawley, males, in feed, site: testis, lesion: one or several types, types not named, dosed 104 weeks, study length 104 weeks) negative

C[C@@H]1CCC[C@H](C)N1CCCC(O)(c1ccccc1)c1ccccn1 (some centres not stated)
inactive: TD50 (mouse, strain B6C3F1, females, in feed, site: all sites, lesion: lymphoma, dosed 104 weeks, study length 104 weeks) 94.6 mg/kg/day | carcinogen call (mouse, strain B6C3F1, females, in feed, site: any site (literature study), lesion: several types, types named in the paper, dosed 104 weeks, study length 104 weeks) negative | TD50 (mouse, strain B6C3F1, females, in feed, site: liver, lesion: hepatocellular adenoma, dosed 104 weeks, study length 104 weeks) 1560 mg/kg/day | TD50 (mouse, strain B6C3F1, females, in feed, site: liver, lesion: hepatocellular carcinoma, dosed 104 weeks, study length 104 weeks) 978 mg/kg/day | TD50 (mouse, strain B6C3F1, females, in feed, site: lung, lesion: adenoma, dosed 104 weeks, study length 104 weeks) 1980 mg/kg/day | carcinogen call (mouse, strain B6C3F1, females, in feed, site: lung, lesion: carcinoma, dosed 104 weeks, study length 104 weeks) negative | carcinogen call (mouse, strain B6C3F1, males, in feed, site: any site (literature study), lesion: several types, types named in the paper, dosed 104 weeks, study length 104 weeks) negative | carcinogen call (mouse, strain B6C3F1, males, in feed, site: liver, lesion: hepatocellular adenoma, dosed 104 weeks, study length 104 weeks) negative | carcinogen call (mouse, strain B6C3F1, males, in feed, site: liver, lesion: hepatocellular carcinoma, dosed 104 weeks, study length 104 weeks) negative | TD50 (mouse, strain B6C3F1, males, in feed, site: lung, lesion: adenoma, dosed 104 weeks, study length 104 weeks) 947 mg/kg/day | TD50 (mouse, strain B6C3F1, males, in feed, site: lung, lesion: carcinoma, dosed 104 weeks, study length 104 weeks) 4040 mg/kg/day | TD50 (rat, strain Wistar, females, in feed, site: any site (literature study), lesion: several types, types named in the paper, dosed 104 weeks, study length 104 weeks) 440 mg/kg/day | carcinogen call (rat, strain Wistar, females, in feed, site: liver, lesion: one or several types, types not named, dosed 104 weeks, study length 104 weeks) negative | TD50 (rat, strain Wistar, females, in feed, site: pituitary gland, lesion: adenoma, dosed 104 weeks, study length 104 weeks) 15.9 mg/kg/day | TD50 (rat, strain Wistar, males, in feed, site: adrenal gland, lesion: cortical adenoma, dosed 104 weeks, study length 104 weeks) 104 mg/kg/day | carcinogen call (rat, strain Wistar, males, in feed, site: any site (literature study), lesion: several types, types named in the paper, dosed 104 weeks, study length 104 weeks) negative | carcinogen call (rat, strain Wistar, males, in feed, site: liver, lesion: one or several types, types not named, dosed 104 weeks, study length 104 weeks) negative

O=NN1C[C@H](O)C[C@H]1C(=O)O
inactive: TD50 (rat, strain MRC, females, in drinking water, site: any site (literature study), lesion: several types, types named in the paper, dosed 75 weeks, study length 104 weeks) 3.84 mg/kg/day | carcinogen call (rat, strain MRC, males, in drinking water, site: any site (literature study), lesion: several types, types named in the paper, dosed 75 weeks, study length 104 weeks) negative

COc1c(Cl)c(Cl)c(Cl)c(Cl)c1Cl
6460 mg/kg/day: TD50 (rat, strain Fischer 344, males, by gavage, site: liver, lesion: hepatocellular adenoma + hepatocellular carcinoma + neoplastic nodule, dosed 103 weeks, study length 104 weeks)
776 mg/kg/day: TD50 (mouse, strain B6C3F1, females, by gavage, site: lung, lesion: alveolar/bronchiolar adenoma + alveolar/bronchiolar carcinoma, dosed 103 weeks, study length 104 weeks)
38.3 mg/kg/day: TD50 (mouse, strain B6C3F1, males, by gavage, site: adrenal medulla + liver, lesion: pheochromocytoma, benign + hemangiosarcoma, dosed 103 weeks, study length 104 weeks)
inactive: TD50 (mouse, strain B6C3F1, females, by gavage, site: any site (literature study), lesion: several types, types named in the paper, dosed 103 weeks, study length 104 weeks) 47.5 mg/kg/day
active: TD50 (mouse, strain B6C3F1, males, by gavage, site: adrenal medulla, lesion: pheochromocytoma, benign, dosed 103 weeks, study length 104 weeks) 77.4 mg/kg/day | TD50 (mouse, strain B6C3F1, males, by gavage, site: liver, lesion: hemangiosarcoma, dosed 103 weeks, study length 104 weeks) 68 mg/kg/day | TD50 (rat, strain Fischer 344, males, by gavage, site: adrenal medulla, lesion: pheochromocytoma, benign, dosed 103 weeks, study length 104 weeks) 24.8 mg/kg/day | TD50 (rat, strain Fischer 344, males, by gavage, site: adrenal medulla, lesion: pheochromocytoma, malignant + pheochromocytoma, benign, dosed 103 weeks, study length 104 weeks) 30 mg/kg/day
1180 mg/kg/day: TD50 (rat, strain Fischer 344, females, by gavage, site: liver, lesion: hepatocellular adenoma + hepatocellular carcinoma + neoplastic nodule, dosed 103 weeks, study length 104 weeks)
174 mg/kg/day: TD50 (rat, strain Fischer 344, females, by gavage, site: adrenal medulla, lesion: pheochromocytoma, benign, dosed 103 weeks, study length 104 weeks)
40.2 mg/kg/day: TD50 (mouse, strain B6C3F1, males, by gavage, site: any site (literature study), lesion: several types, types named in the paper, dosed 103 weeks, study length 104 weeks)
63 mg/kg/day: TD50 (mouse, strain B6C3F1, females, by gavage, site: liver, lesion: hepatocellular adenoma + hepatocellular carcinoma + neoplastic nodule, dosed 103 weeks, study length 104 weeks)
